From patent EP0234113A1, “2,3-Dihydro-1H-phenalene-2-amino compounds as anti-psychotic drugs” (THE UPJOHN COMPANY, priority 1985, dated 1987)
Several values for one entry are separate records, joined by “and”; a condition that tells them apart may be missing. Equal values may be shown once. Entries after “also recorded” stand apart in the source; their conditions may differ. Read-outs that look alike come from different tables or passages of the source.

Experiments:
[1] = system: locomotor stimulation; experiment: Locomotor stimulation in reserpinized mice, drug given by itself; type: in vivo
From the text: Consistant with its having a minor amount of agonist activity, the overall behavioral effects of U-64,273A conform to that of a weak DA antagonist (Table 3). […] When given by itself, U-64,273A affected locomotor activities in rodents in a way resembling both DA auto-receptor and postsynaptic receptor agonists.

[2] = system: Emesis; experiment: Antagonism of apomorphine emesis; type: in vivo
From the text: (§1) Table 3. […] A. Behavioral effects in the rat. B. Behavioral effects in the monkey. C. Doses required to antagonize the indicated behavioral effects of amphetamine. D. Doses required to antagonize the indicated behavioral effects of apomorphine.

[3] = system: Stereotypy; experiment: Antagonism of apomorphine stereotypy; type: in vivo; settings: i.a. = inactive, listed as U-64273A
From the text: as §1

[4] = system: dopamine metabolites HVA, DOPAC, and 3MT; experiment: Dopamine metabolites in rat brain; type: in vivo; settings: percentage of control; 3 mg/kg of chlorpromazine, 30 mg/kg clozapine or U-64,273A; Sprague-Dawley rat
[5] = system: 6-OH DA Turning; experiment: Antagonism of amphetamine: 6-OH DA turning; type: in vivo; settings: i.a. = inactive
From the text: as §1

[6] = system: Dopamine (3H-spiperone); experiment: Receptor Binding Assay with 3H-spiperone (Dopamine Binding Assay), rat brain homogenate; settings: 1μM; rat brain homogenates; - indicates ligand was displaced
Protocol: The Receptor Binding Assay test for antipsychotic acitvity, was conducted as follows:
A rat brain homogenate was prepared (1) by homogenizing a whole rat brain minus the cerebellum in 10 ml of 0.05M THAM-HC1, pH 7.4, using a Polytron at a setting of 7 for 30 sec. and centrifuging at 15,000xg for 10 min. The supernatant was discarded, the pellet resuspended in 10 ml of buffer using the Polytron for 10 sec., and the centrifugation repeated. The pellet was resuspended and diluted to 100 times the original tissue weight with buffer. Then 100 ml of the homogenate was diluted to 400 ml with buffer.
The test drug was weighed out in a scintillation vial in a 1-5 mg ammount. They were dissolved by adding 0.5 ml of N-N-dimethylformamide of (DMF) and then 0.05 ml of 1M acetic acid, and vortexed to solubilize the drug. Then 10 ml of deionized and filtered water was added to the required volume. All compounds were tested at a single concentration of 1 uM.
Samples were prepared for incubation using an ^3H-spiperone (antipsychotic).
Incubation was conducted at 30°C for 30 min. on a shaking water bath. Every 30 sec., 24 tubes were filled with 1 ml of homogenate and put into the bath (this is done every 3 min. until all tubes are in the bath). Upon completion of the incubation procedure, the samples are filtered and rinsed.
The punched filters are dropped into vials, which are in turn filled with ACS liquid scintillation fluid and capped and counted in a liquid scintillation counter. Counting data is recorded and analyzed.
Results are expressed as percent decrease from control.

[7] = system: locomotor activity; experiment: Antagonism of apomorphine locomotor activity in rat; type: in vivo; settings: i.a. = inactive
From the text: as §1

[8] = system: dopamine neurons; experiment: Reversal of amphetamine depression of dopamine neuron firing rates; type: in vivo, rats
Protocol: Table 2. Dopamine neuron firing rates were recorded according to published procedures and drugs were injected intravenously in chloral hydrate anesthetized rats. A. Ability of drugs to reverse the depression in firing rates of dopamine neurons by 1 to 2 mg/kg amphetamine. The maximum effect is the maximum amount of the amphetamine effect that was reversed, even when doses were increased beyond dose causing maximum effect. […] B. Depression of dopamine neurons by full agonist apomorphine and partial agonists TDHL, (-)PPP and U-64,273A. Maximum effect is maximum depression that could be realized even after increasing doses beyong the dose causing maximum effect. For both A and B, the ED50 is the dose causing 50% of the respective antagonistic (A) or agonist (B) effect.

[9] = system: Conditioned Avoidance; experiment: Conditioned avoidance; type: in vivo; settings: rat; (p) = partial activity, i.a. = inactive
From the text: as §1

[10] = system: Apomorphone-Induced Case Climbing; experiment: Apomorphine antagonism (Apomorphine gnawing test; apomorphine-induced cage climbing); type: in vivo, Mouse; settings: mouse
From the text: The Effect on Body Temperature (Hypothermia) Test and the Antagonism of Apomorphone-Induced Case Climbing (ACC), (Apomorphine Gnawing Test) are described on page 1398 of the publication, Journal of Medicinal Chemistry, Vol. 22, No. 11, pp. 1390-1398, in an article entitled "6-Aryl-4H-s-triazolo[4,3-a][1,4]benzodiazepines....Action" by J. B. Hester, Jr., et al.
as §1

[11] = system: plasma prolactin; experiment: Plasma prolactin; type: in vivo; settings: cell marks this value (10), probably 10 mg/kg; Sprague-Dawley rat
[12] = system: Catalepsy; experiment: Catalepsy; settings: rat; i.a. = inactive
From the text: as §1

[13] = system: Locomotor activity; experiment: Antagonism of apomorphine locomotor activity in reserpinized mouse; type: in vivo
From the text: as §1

[14] = system: muscarinic; experiment: Muscarinic ligand binding, rat brain homogenates; settings: 1μM, - indicates ligand was displaced
[15] = system: LSD; experiment: LSD ligand binding, rat brain homogenates; settings: 1μM, - indicates ligand was displaced
[16] = system: alpha-2; experiment: Alpha-2 ligand binding, rat brain homogenates; settings: 1μM, - indicates ligand was displaced
[17] = system: Serotonin metabolites; experiment: Serotonin metabolites in rat brain; type: in vivo, Sprague-Dawley rat; settings: percentage of control; 1 mg/kg haloperidol, 10 mg/kg of clozapine, 30 mg/kg U-64,273A
[18] = system: lethal dose of d-amphetamine; experiment: Antagonism of amphetamine toxicity; type: in vivo
From the text: as §1

[19] = system: dopamine neurons; experiment: Depression of dopamine neuron firing rates by the drug alone; type: in vivo, rats
Protocol: Table 2. Dopamine neuron firing rates were recorded according to published procedures and drugs were injected intravenously in chloral hydrate anesthetized rats. A. Ability of drugs to reverse the depression in firing rates of dopamine neurons by 1 to 2 mg/kg amphetamine. The maximum effect is the maximum amount of the amphetamine effect that was reversed, even when doses were increased beyond dose causing maximum effect. An effect greater than 100% indicates excitation of the neuron beyond its' control rate whereas an effect less than 100% indicates partial agonist effects. B. Depression of dopamine neurons by full agonist apomorphine and partial agonists TDHL, (-)PPP and U-64,273A. Maximum effect is maximum depression that could be realized even after increasing doses beyong the dose causing maximum effect. For both A and B, the ED50 is the dose causing 50% of the respective antagonistic (A) or agonist (B) effect.

[20] = system: body temperature; experiment: Hypothermia Test (effect on body temperature); type: in vivo, CF-1 male mice; settings: either test: hypothermic or apomorphine antagonism
[21] = system: Discrimination; experiment: Antagonism of apomorphine discrimination; type: in vivo; settings: (p) = partial activity
From the text: as §1

[22] = system: alpha-1; experiment: Alpha-1 ligand binding, rat brain homogenates; settings: 1μM, i.a. = inactive
[23] = system: locomotor activity; experiment: Antagonism of amphetamine: locomotor activity; type: in vivo; settings: i.a. = inactive
From the text: as §1

[24] = dopamine neuron firing, Table 2

CNC1Cc2cccc3cccc(c23)C1 [U-64,273A, 2,3-dihydro-N-mono-methyl-lH-phenalen-2-amine]
locomotor stimulation in reserpinized mice [1]: no locomotor stimulation | Dog Emesis, dose required to antagonize apomorphine [2]: antagonized apomorphine | Rat Stereotypy, dose required to antagonize apomorphine [3]: i.a. | 3MT [4]: 50% | DOPAC [4]: 80% | 6-OH DA Turning, rat, dose required to antagonize amphetamine [5]: antagonized d-amphetamine | spiperone, percentage of ligand displaced [6]: relatively weak and -46.2% | Locomotor activity, rat, dose required to antagonize apomorphine [7]: i.a. | ED50 ([8]; Rattus norvegicus, Neuron, iv): 0.005 mg/kg | Emax ([8]; Rattus norvegicus, Neuron, iv, read-out: MAXIMUM EFFECT (per cent reversal)): 69% | antagonist share [8, 24]: 70% | reversal of amphetamine's depression of DA neuronal firing (in words) ([8]; intravenous, anesthetized rats): potent in reversing the effect of d-amphetamine on nigral DA neuronal firing; also recorded: not quite complete | Conditioned Avoidance, active dose [9]: suppressed conditioned avoidance behavior of rats with a limited efficacy | Cage Climbing Mouse, dose required to antagonize apomorphine [10]: antagonized apomorphine | Plasma Prolactin [11]: 1% | Catalepsy, active dose [12]: i.a. | Locomotor activity, reserpinized mouse, 3 mg/kg (antag. of apomorphine) [13]: antagonized apomorphine | Locomotor activity, reserpinized mouse, 3 mg/kg (antag. of apomorphine) ([13]; listed as U-64273A): 47% antag. | muscarinic, percentage of ligand displaced [14]: -11.7% | LSD, percentage of ligand displaced [15]: -67.3% | alpha-2, percentage of ligand displaced [16]: -37.5% | 5HIAA [17]: 76% | 5HT [17]: 128% | 5HTP [17]: 37% | Mouse Toxicity, dose required to antagonize amphetamine [18]: did not protect mice | ED50 ([19]; Rattus norvegicus, Neuron, iv): 0.07 mg/kg | Emax ([19]; Rattus norvegicus, Neuron, iv, read-out: MAXIMUM EFFECT (per cent decrease)): 30% | agonist share [19, 24]: 30% | inhibition of DA neuronal firing when given alone (in words) ([19]; rat, in vivo): weakly inhibit | active in either the hypothermic or the apomorphine antogonism test [20]: active | Monkey Discrimination, dose required to antagonize apomorphine [21]: antagonized apomorphine | alpha-1, percentage of ligand displaced [22]: i.a. | RAT locomotor activity, dose required to antagonize amphetamine [23]: i.a.
